Results on 15 compounds are retold here after the Deep4Chem optical property database.

A short description of this data set: solvent given as SMILES.

`c1csc(-c2nc3ccccc3c3cc4ccccn4c23)c1` showed an emission maximum (in CS(C)=O) of 508 nm.

Regarding `CC(C)(C)c1ccc(-c2nnc(-c3c(-n4c5ccccc5c5ccccc54)c(-n4c5ccccc5c5ccccc54)c(-c4nnc(-c5ccc(C(C)(C)C)cc5)o4)c(-n4c5ccccc5c5ccccc54)c3-n3c4ccccc4c4ccccc43)o2)cc1`, the emission maximum worked out at 569 nm (in Cc1ccccc1) and 527 nm (in c1cc(-n2c3ccccc3c3ccccc32)nc(-n2c3ccccc3c3ccccc32)c1).

Under “in ClCCl”, `CCCCCCCCCCCCN1C(=O)c2c(c3ccc4cc(-c5ccc(Cl)cc5)c(OC)cc4c3c3c2ccc2cc(-c4ccc(Cl)cc4)c(OC)cc23)C1=O` gave an emission maximum of 526 nm.

Regarding `O=c1c2cc(Br)ccc2nc2n1[B-](F)(F)[n+]1ccccc1-2`, the emission maximum is on record as 440 nm (in CC#N) and 448 nm (in ClCCl).

In turn, `CCOC(=O)c1c2c3c(cccc3c3cc4ccccc4cc13)N(C)C2=O` gave an emission maximum (in CC#N) of 413 nm.

Take `CC1(C)C(/C=C/C2=C(Oc3ccc(CCN=C=S)cc3F)C(=C/C=C3/N(CCCS(=O)(=O)[O-])c4ccccc4C3(C)C)/CCC2)=[N+](CCCS(=O)(=O)[O-])c2ccccc21`: under “in CO”, the emission maximum is 797 nm.

In the case of `COC(=O)c1cc(=O)n(C)c2cc(-c3ccccc3)sc12`, the emission maximum is, setting by setting: (in CC#N) 462 nm; (in ClCCl) 462 nm.

As for `C(=C\c1cccc2ccccc12)/c1ccc(-c2nnc(-c3ccc(-c4cc5ccccc5s4)cc3)o2)cc1`, the emission maximum reads like this: (in CC#N) 441 nm; (in CC(C)=O) 437 nm; (in CCCCCCCC) 426 nm; (in CCCCCCCCCCO) 437 nm; (in CCCCCCCCO) 436 nm; (in CCCCCO) 438 nm. Further, the emission maximum is recorded as 441 nm (in CCCO), 447 nm (in CN(C)C=O), 448 nm (in CO) and 455 nm (in CS(C)=O).

As to `CN(C)c1ccc(C2=Cc3c4ccccc4c4ccccc4[n+]3[B-](F)(F)O2)cc1`, the emission maximum by setting is: (in C1CCOC1) 539 nm; (in C1COCCO1) 518 nm; (in CC1CCCCC1) 485 nm; (in CC#N) 569 nm; (in CCOC(C)=O) 536 nm; (in CCOCC) 513 nm. Also, the emission maximum by setting is: (in CN(C)C=O) 571 nm; (in CO) 559 nm; (in COC(C)=O) 559 nm; (in ClC(Cl)Cl) 521 nm.

Turning to `Cc1ccc(C2=C3C=CC([Te]c4ccccc4)=[N+]3[B-](F)(F)n3c([Te]c4ccccc4)ccc32)cc1`, the emission maximum (in C1CCOC1) is 659 nm.

As to `COC(=O)CNC(=O)c1nc2c(N(C)C)nc(N(C)C)nc2n1Cc1ccccc1`, the emission maximum by setting is: (in C1COCCO1) 397 nm; (in CC#N) 409 nm; (in CO) 429 nm; (in ClCCl) 407 nm.

In the case of `c1ccc(-n2c(-c3ccc([Si](c4ccc(-c5nc6ccccc6n5-c5ccccc5)cc4)(c4ccc(-c5nc6ccccc6n5-c5ccccc5)cc4)c4ccc(-c5nc6ccccc6n5-c5ccccc5)cc4)cc3)nc3ccccc32)cc1`, the emission maximum (in ClCCl) turned out to be 363 nm.

For `c1ccc(-c2nnc(-c3cc(-n4c5ccccc5c5ccccc54)c(-n4c5ccccc5c5ccccc54)cc3-c3nnc(-c4ccccc4)o3)o2)cc1`, the emission maximum is, setting by setting: (in CC#N) 525.15 nm; (in Cc1ccccc1) 466 nm; (in ClCCl) 500.52 nm.

Consider `Cc1cc(C(F)(F)F)nc2c1ccc1nc(-c3ccc(F)c(F)c3)cn12`, for which the emission maximum worked out at 460 nm (in CC#N); 433 nm (in CCCCCC); 453 nm (in CCCCOC(C)=O); 454 nm (in CCOC(C)=O); 456 nm (in CO); 451 nm (in Cc1ccccc1). In addition, the emission maximum is, setting by setting: (in ClC(Cl)Cl) 448 nm; (in ClCCl) 451 nm; (in c1ccccc1) 450 nm.

`[O-][n+]1c(/C=C/c2ccccc2)nc(Nc2ccccc2)c2c1CCCC2` returned an emission maximum (in ClCCl) of 508 nm.
